ChEMBL document CHEMBL5257035, “Nucleoside Derived Antibiotics to Fight Microbial Drug Resistance: New Utilities for an Established Class of Drugs?” (J Med Chem, 2016)
≈ marks a conversion by molar mass, not a printed value. Each block holds one compound with its values, some of them ahead of it.

Assays:
[1] = biological target: T1, Phospho-N-acetylmuramoyl-pentapeptide-transferase (Escherichia coli K-12, UniProt P0A6W3); test: Inhibition of MraY in Escherichia coli K12
T1 sequence (P0A6W3 whole entry): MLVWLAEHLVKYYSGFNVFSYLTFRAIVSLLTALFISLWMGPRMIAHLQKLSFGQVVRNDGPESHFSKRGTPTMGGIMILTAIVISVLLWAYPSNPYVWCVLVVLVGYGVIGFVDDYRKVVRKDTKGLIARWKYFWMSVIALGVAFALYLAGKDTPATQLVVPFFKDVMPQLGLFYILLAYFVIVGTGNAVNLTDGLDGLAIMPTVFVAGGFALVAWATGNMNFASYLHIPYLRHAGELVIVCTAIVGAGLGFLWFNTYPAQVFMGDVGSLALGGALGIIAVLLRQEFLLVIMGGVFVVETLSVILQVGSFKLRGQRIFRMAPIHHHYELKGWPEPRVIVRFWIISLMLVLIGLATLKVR

[2] = biological target: T2, Phospho-N-acetylmuramoyl-pentapeptide-transferase (Escherichia coli, UniProt E2QF15); test: Inhibition of MraY in Escherichia coli
T2 sequence (E2QF15 whole entry): T1 sequence (P0A6W3 whole entry)

[3] = Inhibition of Bacterial MraY; design: species or system Bacteria
[4] = Toxicity in rat; conditions: in vivo
[5] = tested on: Bacillus subtilis; test: Antibacterial activity against Bacillus subtilis ATCC 6633 assessed as bacterial growth inhibition by agar diffusion method; assay type: functional
[6] = tested on: Candida albicans; test: Inhibition of Candida albicans chitin synthase at 1 uM relative to control
[7] = Cytotoxicity against human HepG2 cells assessed as reduction in cell viability incubated for 72 hrs by MTT assay; assay type: toxicity, cell-based

IC50 [1]: 10 µM
SMILES: NC[C@H]1O[C@@H](OC[C@@H]2C[C@@H](O)[C@H](n3ccc(=O)[nH]c3=O)O2)[C@H](O)[C@@H]1O

SMILES: CC(C)[C@H](NC(=O)N[C@H](C(=O)N[C@H](C(=O)NCCCN[C@@H](CC[C@H]1O[C@@H](n2ccc(=O)[nH]c2=O)[C@H](O)[C@@H]1O)C(=O)O)[C@@H](O)C(C)C)[C@@H]1CCNC(=N)N1)C(=O)O
IC50 [2]: 1.7 µM | IC50 [3]: 150 µM

SMILES: CC(=O)N[C@H]1[C@H](O[C@@H]2O[C@H](C[C@@H](C)[C@H]3O[C@@H](n4ccc(=O)[nH]c4=O)[C@H](O)[C@@H]3O)[C@H](O)[C@H](O)[C@H]2NC(=O)CCCCCCCCCCCCCCC(C)C)O[C@@H](CO)[C@H](O)[C@@H]1O
LD50 [4]: 0.137 mg/kg | MIC [5]: 0.1 mg/L (≈ 0.115 µM)

SMILES: NC[C@H]1O[C@@H](O[C@@H](Cc2cn(Cc3ccc(COc4ccc(C(=O)c5ccccc5)cc4)cc3)nn2)[C@H]2O[C@@H](n3ccc(=O)[nH]c3=O)[C@H](O)[C@@H]2O)[C@H](O)[C@@H]1O
IC50 [2]: 8 µM

SMILES: CC(=O)N[C@H]1[C@H](O[C@@H]2O[C@H](C[C@@H](C)[C@H]3O[C@@H](n4ccc(=O)[nH]c4=O)[C@H](O)[C@@H]3O)[C@H](O)[C@H](O)[C@H]2NC(=O)CCCCCCCCCCCCC(C)C)O[C@@H](CO)[C@H](O)[C@@H]1O
LD50 [4]: 0.137 mg/kg | MIC [5]: 0.1 mg/L (≈ 0.118 µM)

IC50 [2]: 25 µM
SMILES: N=CNC[C@H]1O[C@@H](OC[C@H]2O[C@@H](n3ccc(=O)[nH]c3=O)[C@H](O)[C@@H]2O)[C@H](O)[C@@H]1O

IC50 [1]: 10 µM
SMILES: NC[C@H]1O[C@@H](OC[C@H]2O[C@@H](n3ccc(=O)[nH]c3=O)C[C@@H]2O)[C@H](O)[C@@H]1O

SMILES: NC[C@H]1O[C@@H](O[C@@H](Cc2cn(CCCCCCCCCCOc3ccc(C(=O)c4ccccc4)cc3)nn2)[C@H]2O[C@@H](n3ccc(=O)[nH]c3=O)[C@H](O)[C@@H]2O)[C@H](O)[C@@H]1O
IC50 [2]: 8 µM

inhibition [6]: 10%
SMILES: O=C(NCCCNC(=O)[C@@H](O)[C@H](O)C(=O)NC[C@H]1O[C@@H](n2ccc(=O)[nH]c2=O)[C@H](O)[C@@H]1O)[C@@H](O)[C@H](O)C(=O)NC[C@H]1O[C@@H](n2ccc(=O)[nH]c2=O)[C@H](O)[C@@H]1O

IC50 [3]: 6.25 µM
SMILES: CCCCCCCCCCCCN1C(=O)C([C@H](O[C@@H]2O[C@H](CN)[C@@H](O)[C@H]2OC)[C@H]2O[C@@H](n3ccc(=O)[nH]c3=O)[C@H](O)[C@@H]2O)N(CCCNC(=O)[C@@H](NC(=O)[C@@H](NC(=O)N[C@H](C(=O)O)C(C)C)[C@@H]2CCNC(=N)N2)[C@@H](O)C(C)C)C1=O (some centres undefined)

inhibition [6]: 5%
SMILES: O=C(NCCNC(=O)[C@@H](O)[C@H](O)C(=O)NC[C@H]1O[C@@H](n2ccc(=O)[nH]c2=O)[C@H](O)[C@@H]1O)[C@@H](O)[C@H](O)C(=O)NC[C@H]1O[C@@H](n2ccc(=O)[nH]c2=O)[C@H](O)[C@@H]1O

SMILES: CC(C)C[C@@H](NC(=O)[C@@H](NC(=O)N[C@H](C(=O)O)C(C)C)[C@@H]1CCNC(=N)N1)C(=O)NCCCNC(C(=O)O)[C@H](O[C@@H]1O[C@H](CN)[C@@H](O)[C@H]1O)[C@H]1O[C@@H](n2ccc(=O)[nH]c2=O)[C@H](O)[C@@H]1O (some centres undefined)
IC50 at 72 h [7]: > 100 mg/L

SMILES: CC(C)[C@H](NC(=O)N[C@H](C(=O)N[C@@H](CCCCCCCc1ccc(-c2ccccc2)cc1)C(=O)NCCCNC(C(=O)O)[C@H](O[C@@H]1O[C@H](CN)[C@@H](O)[C@H]1O)[C@H]1O[C@@H](n2ccc(=O)[nH]c2=O)[C@H](O)[C@@H]1O)[C@@H]1CCNC(=N)N1)C(=O)O (some centres undefined)
IC50 at 72 h [7]: > 100 mg/L

SMILES: CCC(C)CCCCCCCCCCCCC(=O)N[C@H]1[C@H](O[C@@H]2O[C@@H](CO)[C@H](O)[C@H](O)[C@H]2NC(C)=O)O[C@H](C[C@@H](C)[C@H]2O[C@@H](n3ccc(=O)[nH]c3=O)[C@H](O)[C@@H]2O)[C@H](O)[C@@H]1O (some centres undefined)
LD50 [4]: 0.137 mg/kg | MIC [5]: 0.1 mg/L (≈ 0.116 µM)

IC50 [2]: 25 µM
SMILES: CNC[C@H]1O[C@@H](OC[C@H]2O[C@@H](n3ccc(=O)[nH]c3=O)[C@H](O)[C@@H]2O)[C@H](O)[C@@H]1O

SMILES: CC(=O)N[C@H]1[C@H](O[C@@H]2O[C@H](C[C@@H](C)[C@H]3O[C@@H](n4ccc(=O)[nH]c4=O)[C@H](O)[C@@H]3O)[C@H](O)[C@H](O)[C@H]2NC(=O)CC(O)CCCCCCCCCCCCC(C)C)O[C@@H](CO)[C@H](O)[C@@H]1O (some centres undefined)
LD50 [4]: 0.137 mg/kg | MIC [5]: 0.1 mg/L (≈ 0.112 µM)

SMILES: CC(=O)N[C@H]1[C@H](O[C@@H]2O[C@H](C[C@@H](C)[C@H]3O[C@@H](n4ccc(=O)[nH]c4=O)[C@H](O)[C@@H]3O)[C@H](O)[C@H](O)[C@H]2NC(=O)/C=C/CCCCCCCCCCCC(C)C)O[C@@H](CO)[C@H](O)[C@@H]1O
LD50 [4]: 0.137 mg/kg | MIC [5]: 0.1 mg/L (≈ 0.117 µM)

inhibition [6]: 20%
SMILES: NC(=O)[C@@H](O)[C@H](O)C(=O)NC[C@H]1O[C@@H](n2ccc(=O)[nH]c2=O)[C@H](O)[C@@H]1O
